Laboratory results from ChEMBL document CHEMBL1136174, “Synthesis and antimycobacterial activity of capuramycin analogues. Part 1: substitution of the azepan-2-one moiety of capuramycin” (Bioorg Med Chem Lett, 2003).
≈ marks a conversion by molar mass, not a printed value.

Legend:
[1] = target: T1, Phospho-N-acetylmuramoyl-pentapeptide-transferase (Escherichia coli K-12, UniProt P0A6W3); assay: Inhibitory activity against translocase I
T1 sequence (P0A6W3 whole entry): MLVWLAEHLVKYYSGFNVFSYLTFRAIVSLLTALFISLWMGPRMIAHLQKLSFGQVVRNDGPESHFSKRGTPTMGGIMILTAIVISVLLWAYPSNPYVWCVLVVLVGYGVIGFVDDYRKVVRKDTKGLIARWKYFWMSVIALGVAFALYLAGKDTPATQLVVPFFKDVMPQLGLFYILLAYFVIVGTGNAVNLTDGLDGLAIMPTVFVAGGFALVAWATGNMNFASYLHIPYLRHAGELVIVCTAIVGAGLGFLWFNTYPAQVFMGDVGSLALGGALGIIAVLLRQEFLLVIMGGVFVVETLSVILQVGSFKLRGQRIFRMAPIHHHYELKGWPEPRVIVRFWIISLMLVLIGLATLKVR

[2] = tested on: Mycolicibacterium smegmatis; assay: Antimycobacterial activity against Mycobacterium smegmatis (SANK 75075); format: functional
Mycobacterium avium = assay: Antimycobacterial activity against Mycobacterium avium (NIHJ1605); format: functional
Mycobacterium kansasii = assay: Antimycobacterial activity against Mycobacterium kansasii (ATCC12478); format: functional
[3] = tested on: Mycobacterium intracellulare; assay: Antimycobacterial activity against Mycobacterium intracellular (ATCC 1954 E-3); format: functional

| SMILES | IC50 [1] [nM] | MIC [2] [µg/mL] | MIC (Mycobacterium avium) [µg/mL] | MIC (Mycobacterium kansasii) [µg/mL] | MIC [3] [µg/mL] |
| --- | --- | --- | --- | --- | --- |
| CCCCCCc1ccc(NC(=O)C2=C[C@H](O)[C@H](O)[C@@H](O[C@@H](C(N)=O)[C@H]3O[C@@H](n4ccc(=O)[nH]c4=O)[C@H](O)[C@@H]3OC)O2)cc1 | 259 | 12.5 (≈ 20.2 µM) |  |  |  |
| CO[C@H]1[C@@H](O)[C@H](n2ccc(=O)[nH]c2=O)O[C@@H]1[C@@H](O[C@H]1OC(C(=O)Nc2ccc(F)cc2)=C[C@H](O)[C@@H]1O)C(N)=O | 67 | 6.25 (≈ 11.3 µM) | 4 (≈ 7.24 µM) | 2 (≈ 3.62 µM) | 2 (≈ 3.62 µM) |
| CO[C@H]1[C@@H](O)[C@H](n2ccc(=O)[nH]c2=O)O[C@@H]1[C@@H](O[C@H]1OC(C(=O)NCCc2ccc(Cl)cc2Cl)=C[C@H](O)[C@@H]1O)C(N)=O | 30.1 | 50 (≈ 79.2 µM) |  |  |  |
| CO[C@H]1[C@@H](O)[C@H](n2ccc(=O)[nH]c2=O)O[C@@H]1[C@@H](O[C@H]1OC(C(=O)Nc2ccc(Br)cc2)=C[C@H](O)[C@@H]1O)C(N)=O | 32.6 | 6.25 (≈ 10.2 µM) | 8 (≈ 13 µM) | 8 (≈ 13 µM) | 0.5 (≈ 0.815 µM) |
| CO[C@H]1[C@@H](O)[C@H](n2ccc(=O)[nH]c2=O)O[C@@H]1[C@@H](O[C@H]1OC(C(=O)NCc2ccc3c(c2)OCO3)=C[C@H](O)[C@@H]1O)C(N)=O | 338 | 50 (≈ 84.4 µM) |  |  |  |
| CO[C@H]1[C@@H](O)[C@H](n2ccc(=O)[nH]c2=O)O[C@@H]1[C@@H](O[C@H]1OC(C(=O)Nc2ccc(Cl)cc2)=C[C@H](O)[C@@H]1O)C(N)=O | 31.6 | 6.25 (≈ 11 µM) | 4 (≈ 7.03 µM) | 16 (≈ 28.1 µM) | 2 (≈ 3.52 µM) |
| CO[C@H]1[C@@H](O)[C@H](n2ccc(=O)[nH]c2=O)O[C@@H]1[C@@H](O[C@H]1OC(C(=O)Nc2cccc(C)c2)=C[C@H](O)[C@@H]1O)C(N)=O | 13.9 | 12.5 (≈ 22.8 µM) | 4 (≈ 7.29 µM) | 8 (≈ 14.6 µM) | 1 (≈ 1.82 µM) |
| CO[C@H]1[C@@H](O)[C@H](n2ccc(=O)[nH]c2=O)O[C@@H]1[C@@H](O[C@H]1OC(C(=O)N[C@H]2CCC[C@@H](C)NC2=O)=C[C@H](O)[C@@H]1O)C(N)=O |  | 6.25 (≈ 10.7 µM) | 8 (≈ 13.7 µM) | 16 (≈ 27.4 µM) | 4 (≈ 6.85 µM) |
| CO[C@H]1[C@@H](O)[C@H](n2ccc(=O)[nH]c2=O)O[C@@H]1[C@@H](O[C@H]1OC(C(=O)Nc2cccc(F)c2)=C[C@H](O)[C@@H]1O)C(N)=O |  | 6.25 (≈ 11.3 µM) | 2 (≈ 3.62 µM) | 8 (≈ 14.5 µM) | 2 (≈ 3.62 µM) |
| CO[C@H]1[C@@H](O)[C@H](n2ccc(=O)[nH]c2=O)O[C@@H]1[C@@H](O[C@H]1OC(C(=O)Nc2ccccc2)=C[C@H](O)[C@@H]1O)C(N)=O |  | 6.25 (≈ 11.7 µM) | 16 (≈ 29.9 µM) | 8 (≈ 15 µM) | 4 (≈ 7.48 µM) |
| CO[C@H]1[C@@H](O)[C@H](n2ccc(=O)[nH]c2=O)O[C@@H]1[C@@H](O[C@H]1OC(C(=O)Nc2ccc(F)c(F)c2)=C[C@H](O)[C@@H]1O)C(N)=O |  | 6.25 (≈ 11 µM) | 2 (≈ 3.51 µM) | 8 (≈ 14 µM) | 0.5 (≈ 0.876 µM) |
| CO[C@H]1[C@@H](O)[C@H](n2ccc(=O)[nH]c2=O)O[C@@H]1[C@@H](O[C@H]1OC(C(=O)N[C@H]2CCCCNC2=O)=C[C@H](O)[C@@H]1O)C(N)=O [CAPURAMYCIN] | 18 | 12.5 (≈ 21.9 µM) | 8 (≈ 14 µM) | 8 (≈ 14 µM) | 8 (≈ 14 µM) |
| NNC(=O)c1ccncc1 [ISONIAZID] |  |  | 1 (≈ 7.29 µM) | 2 (≈ 14.6 µM) | 8 (≈ 58.3 µM) |
| CO[C@H]1/C=C/O[C@@]2(C)Oc3c(C)c(O)c4c(O)c(c(/C=N/N5CCN(C)CC5)c(O)c4c3C2=O)NC(=O)/C(C)=C\C=C\[C@H](C)[C@H](O)[C@@H](C)[C@@H](O)[C@@H](C)[C@H](OC(C)=O)[C@@H]1C [RIFAMPIN] |  |  | 0.125 (≈ 0.152 µM) | 0.25 (≈ 0.304 µM) | 0.125 (≈ 0.152 µM) |

Further lines, with some results ahead:

| IC50 [1] [nM] | MIC [2] [µg/mL] | SMILES | MIC (Mycobacterium avium) [µg/mL] | MIC (Mycobacterium kansasii) [µg/mL] | MIC [3] [µg/mL] |
| --- | --- | --- | --- | --- | --- |
| 484 | 50 (≈ 86.4 µM) | COc1ccccc1CNC(=O)C1=C[C@H](O)[C@H](O)[C@@H](O[C@@H](C(N)=O)[C@H]2O[C@@H](n3ccc(=O)[nH]c3=O)[C@H](O)[C@@H]2OC)O1 |  |  |  |
| 353 | 50 (≈ 88.3 µM) | CO[C@H]1[C@@H](O)[C@H](n2ccc(=O)[nH]c2=O)O[C@@H]1[C@@H](O[C@H]1OC(C(=O)NCc2ccc(F)cc2)=C[C@H](O)[C@@H]1O)C(N)=O |  |  |  |
| 231 | 50 (≈ 88.9 µM) | CO[C@H]1[C@@H](O)[C@H](n2ccc(=O)[nH]c2=O)O[C@@H]1[C@@H](O[C@H]1OC(C(=O)N[C@@H](C)c2ccccc2)=C[C@H](O)[C@@H]1O)C(N)=O |  |  |  |
| 381 | > 100 | CNC(=O)C1=C[C@H](O)[C@H](O)[C@@H](O[C@@H](C(N)=O)[C@H]2O[C@@H](n3ccc(=O)[nH]c3=O)[C@H](O)[C@@H]2OC)O1 |  |  |  |
| 32.1 | 50 (≈ 84.4 µM) | COc1cccc(CCNC(=O)C2=C[C@H](O)[C@H](O)[C@@H](O[C@@H](C(N)=O)[C@H]3O[C@@H](n4ccc(=O)[nH]c4=O)[C@H](O)[C@@H]3OC)O2)c1 |  |  |  |
| 257 | 100 (≈ 184 µM) | CCOCCCNC(=O)C1=C[C@H](O)[C@H](O)[C@@H](O[C@@H](C(N)=O)[C@H]2O[C@@H](n3ccc(=O)[nH]c3=O)[C@H](O)[C@@H]2OC)O1 |  |  |  |
| 544 | 12.5 (≈ 24.3 µM) | CCCCNC(=O)C1=C[C@H](O)[C@H](O)[C@@H](O[C@@H](C(N)=O)[C@H]2O[C@@H](n3ccc(=O)[nH]c3=O)[C@H](O)[C@@H]2OC)O1 |  |  |  |
| 195 | 25 (≈ 44.4 µM) | CO[C@H]1[C@@H](O)[C@H](n2ccc(=O)[nH]c2=O)O[C@@H]1[C@@H](O[C@H]1OC(C(=O)NCCc2ccccn2)=C[C@H](O)[C@@H]1O)C(N)=O |  |  |  |
| 1210 | 100 (≈ 173 µM) | COc1ccc(CNC(=O)C2=C[C@H](O)[C@H](O)[C@@H](O[C@@H](C(N)=O)[C@H]3O[C@@H](n4ccc(=O)[nH]c4=O)[C@H](O)[C@@H]3OC)O2)cc1 |  |  |  |
| 37.3 | 12.5 (≈ 22.2 µM) | CO[C@H]1[C@@H](O)[C@H](n2ccc(=O)[nH]c2=O)O[C@@H]1[C@@H](O[C@H]1OC(C(=O)NCCc2ccccc2)=C[C@H](O)[C@@H]1O)C(N)=O |  |  |  |
| 64 | 50 (≈ 86.4 µM) | CCOc1ccccc1NC(=O)C1=C[C@H](O)[C@H](O)[C@@H](O[C@@H](C(N)=O)[C@H]2O[C@@H](n3ccc(=O)[nH]c3=O)[C@H](O)[C@@H]2OC)O1 |  |  |  |
| 208 | 25 (≈ 43.4 µM) | CO[C@H]1[C@@H](O)[C@H](n2ccc(=O)[nH]c2=O)O[C@@H]1[C@@H](O[C@H]1OC(C(=O)Nc2ccc(C(C)C)cc2)=C[C@H](O)[C@@H]1O)C(N)=O |  |  |  |
| 67.5 | 25 (≈ 42.2 µM) | COc1ccc(CCNC(=O)C2=C[C@H](O)[C@H](O)[C@@H](O[C@@H](C(N)=O)[C@H]3O[C@@H](n4ccc(=O)[nH]c4=O)[C@H](O)[C@@H]3OC)O2)cc1 |  |  |  |
| > 4730 | > 100 | CCCCN(C)C(=O)C1=C[C@H](O)[C@H](O)[C@@H](O[C@@H](C(N)=O)[C@H]2O[C@@H](n3ccc(=O)[nH]c3=O)[C@H](O)[C@@H]2OC)O1 |  |  |  |
| 57 | > 100 | COC(=O)C1=C[C@H](O)[C@H](O)[C@@H](O[C@@H](C(N)=O)[C@H]2O[C@@H](n3ccc(=O)[nH]c3=O)[C@H](O)[C@@H]2OC)O1 |  |  |  |
